# Assay results reported in ChEMBL document CHEMBL1201862, “PubChem BioAssay data set” (2004).
#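 In this assay, cells in 96-well plates receive the compound at five concentrations for 48 hours. Endpoints are linearly interpolated between the surrounding concentrations. Here, GI50 denotes the concentration required for 50% inhibition of growth.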 Calls of active or inactive are those of the source. Cut-off read from the data, not from the text of the source: active = GI50 up to about 1.1 µM and inactive = higher.
# Tests used:
# Assay in all cases: growth of human tumour cells (NCI), 48 h
# 786-0 = test system: 786-0
# A549 = test system: A549
# ACHN = test system: ACHN
# CAKI-1 = test system: CAKI-1
# COLO 205 = test system: COLO 205
# DLD-1 = test system: DLD-1
# DMS-273 = test system: DMS-273
# HCC 2998 = test system: HCC 2998
# HCT-116 = test system: HCT-116
# HCT-15 = test system: HCT-15
# HL-60 = test system: HL-60
# HOP-62 = test system: HOP-62
# HOP-92 = test system: HOP-92
# HT-29 = test system: HT-29
# IGROV-1 = test system: IGROV-1
# K562 = test system: K562
# KM-20L2 = test system: KM-20L2
# KM12 = test system: KM12
# LOX IMVI = test system: LOX IMVI
# LXFL 529 = test system: LXFL 529
# M14 = test system: M14
# M19-MEL = test system: M19-MEL
# MOLT-4 = test system: MOLT-4
# Malme-3M = test system: Malme-3M
# NCI-H226 = test system: NCI-H226
# NCI-H23 = test system: NCI-H23
# NCI-H460 = test system: NCI-H460
# NCI-H522 = test system: NCI-H522
# OVCAR-3 = test system: OVCAR-3
# OVCAR-5 = test system: OVCAR-5
# OVCAR-8 = test system: OVCAR-8
# RPMI-8226 = test system: RPMI-8226
# SF-268 = test system: SF-268
# SF-295 = test system: SF-295
# SF-539 = test system: SF-539
# SK-MEL-28 = test system: SK-MEL-28
# SK-MEL-2 = test system: SK-MEL-2
# SK-OV-3 = test system: SK-OV-3
# SN12C = test system: SN12C
# SNB-19 = test system: SNB-19
# SNB-75 = test system: SNB-75
# SNB-78 = test system: SNB-78
# SR = test system: SR
# SW-620 = test system: SW-620
# TK-10 = test system: TK-10
# U-251 = test system: U-251
# UACC-257 = test system: UACC-257
# UACC-62 = test system: UACC-62
# UO-31 = test system: UO-31
# XF498 = test system: XF498
# A498 = test system: A498
# CCRF-CEM = test system: CCRF-CEM
# DMS-114 = test system: DMS-114
# DU-145 = test system: DU-145
# EKVX = test system: EKVX
# Hs-578T = test system: Hs-578T
# MCF7 = test system: MCF7
# MDA-MB-231 = test system: MDA-MB-231
# MDA-MB-435 = test system: MDA-MB-435
# MDA-N = test system: MDA-N
# NCI/ADR-RES = test system: NCI/ADR-RES
# PC-3 = test system: PC-3
# RXF 393 = test system: RXF 393
# SK-MEL-5 = test system: SK-MEL-5
# T47D = test system: T47D
structure (smiles),measurement,setting,value
O=[N+]([O-])c1ccc(-c2ccc(C3=Nn4c(CNc5ccccc5Cl)nnc4SC3)o2)cc1,GI50,786-0,> 100 µM (inactive)
same,GI50,A549,> 100 µM (inactive)
same,GI50,ACHN,32.6 µM (inactive)
same,GI50,CAKI-1,> 100 µM (inactive)
same,GI50,COLO 205,> 100 µM (inactive)
same,GI50,DLD-1,> 100 µM (inactive)
same,GI50,DMS-273,> 100 µM (inactive)
same,GI50,HCC 2998,> 100 µM (inactive)
same,GI50,HCT-116,> 100 µM (inactive)
same,GI50,HCT-15,12.9 µM
same,GI50,HL-60,> 100 µM (inactive)
same,GI50,HOP-62,> 100 µM (inactive)
same,GI50,HOP-92,> 100 µM (inactive)
same,GI50,HT-29,> 100 µM (inactive)
same,GI50,IGROV-1,> 100 µM (inactive)
same,GI50,K562,58.3 µM (inactive)
same,GI50,KM-20L2,> 100 µM (inactive)
same,GI50,KM12,> 100 µM (inactive)
same,GI50,LOX IMVI,42.7 µM (inactive)
same,GI50,LXFL 529,82.4 µM (inactive)
same,GI50,M14,> 100 µM (inactive)
same,GI50,M19-MEL,> 100 µM (inactive)
same,GI50,MOLT-4,> 100 µM (inactive)
same,GI50,Malme-3M,> 100 µM (inactive)
same,GI50,NCI-H226,> 100 µM (inactive)
same,GI50,NCI-H23,87.9 µM (inactive)
same,GI50,NCI-H460,> 100 µM (inactive)
same,GI50,NCI-H522,> 100 µM (inactive)
same,GI50,OVCAR-3,> 100 µM (inactive)
same,GI50,OVCAR-5,> 100 µM (inactive)
same,GI50,OVCAR-8,> 100 µM (inactive)
same,GI50,RPMI-8226,> 100 µM (inactive)
same,GI50,SF-268,> 100 µM (inactive)
same,GI50,SF-295,> 100 µM (inactive)
same,GI50,SF-539,> 100 µM (inactive)
same,GI50,SK-MEL-28,> 100 µM (inactive)
same,GI50,SK-MEL-2,> 100 µM (inactive)
same,GI50,SK-OV-3,> 100 µM (inactive)
same,GI50,SN12C,> 100 µM (inactive)
same,GI50,SNB-19,> 100 µM (inactive)
same,GI50,SNB-75,> 100 µM (inactive)
same,GI50,SNB-78,> 100 µM (inactive)
same,GI50,SR,> 100 µM (inactive)
same,GI50,SW-620,> 100 µM (inactive)
same,GI50,TK-10,> 100 µM (inactive)
same,GI50,U-251,> 100 µM (inactive)
same,GI50,UACC-257,> 100 µM (inactive)
same,GI50,UACC-62,> 100 µM (inactive)
same,GI50,UO-31,> 100 µM (inactive)
same,GI50,XF498,> 100 µM (inactive)
CCN(CC)CC(C)(C)C(=O)/C=C/c1ccc(/C=C/C(=O)C(C)(C)CN(CC)CC)cc1,GI50,786-0,0.182 µM (active)
same,GI50,A498,1.7 µM (inactive)
same,GI50,A549,1.97 µM (inactive)
same,GI50,ACHN,1.34 µM (inactive)
same,GI50,CAKI-1,0.733 µM (active)
same,GI50,CCRF-CEM,0.0646 µM (active)
same,GI50,COLO 205,0.339 µM (active)
same,GI50,DLD-1,0.341 µM (active)
same,GI50,DMS-114,0.266 µM (active)
same,GI50,DMS-273,0.234 µM (active)
same,GI50,DU-145,2.01 µM (inactive)
same,GI50,EKVX,1.63 µM (inactive)
same,GI50,HCC 2998,0.333 µM (active)
same,GI50,HCT-116,0.334 µM (active)
same,GI50,HCT-15,0.325 µM
same,GI50,HL-60,0.0499 µM (active)
same,GI50,HOP-62,1.95 µM (inactive)
same,GI50,HOP-92,0.397 µM (active)
same,GI50,HT-29,0.211 µM (active)
same,GI50,Hs-578T,0.462 µM (active)
same,GI50,IGROV-1,1.27 µM (inactive)
same,GI50,K562,0.0935 µM (active)
same,GI50,KM-20L2,0.617 µM (active)
same,GI50,KM12,0.879 µM (active)
same,GI50,LOX IMVI,0.263 µM (active)
same,GI50,LXFL 529,0.188 µM (active)
same,GI50,M14,1.03 µM (active)
same,GI50,M19-MEL,0.687 µM (active)
same,GI50,MCF7,0.233 µM (active)
same,GI50,MDA-MB-231,0.206 µM (active)
same,GI50,MDA-MB-435,0.897 µM (active)
same,GI50,MDA-N,0.44 µM (active)
same,GI50,MOLT-4,0.14 µM (active)
same,GI50,Malme-3M,1.12 µM (inactive)
same,GI50,NCI-H226,2.28 µM (inactive)
same,GI50,NCI-H23,0.991 µM (active)
same,GI50,NCI-H460,0.427 µM (active)
same,GI50,NCI-H522,0.104 µM (active)
same,GI50,NCI/ADR-RES,1.09 µM (active)
same,GI50,OVCAR-3,0.533 µM (active)
same,GI50,OVCAR-5,1.54 µM (inactive)
same,GI50,OVCAR-8,0.259 µM (active)
same,GI50,PC-3,0.414 µM (active)
same,GI50,RPMI-8226,0.157 µM (active)
same,GI50,RXF 393,0.233 µM (active)
same,GI50,SF-268,0.512 µM (active)
same,GI50,SF-295,1.22 µM (inactive)
same,GI50,SF-539,1.2 µM (inactive)
same,GI50,SK-MEL-28,0.796 µM (active)
same,GI50,SK-MEL-2,1.72 µM (inactive)
same,GI50,SK-MEL-5,1.54 µM (inactive)
same,GI50,SK-OV-3,2.09 µM (inactive)
same,GI50,SN12C,0.471 µM (active)
same,GI50,SNB-19,1.53 µM (inactive)
same,GI50,SNB-75,1.61 µM (inactive)
same,GI50,SNB-78,1.41 µM (inactive)
same,GI50,SR,0.0893 µM (active)
same,GI50,SW-620,0.211 µM (active)
same,GI50,T47D,0.587 µM (active)
same,GI50,TK-10,1.19 µM (inactive)
same,GI50,U-251,0.469 µM (active)
same,GI50,UACC-257,1.62 µM (inactive)
same,GI50,UACC-62,1.46 µM (inactive)
same,GI50,UO-31,1.8 µM (inactive)
same,GI50,XF498,0.317 µM (active)
